{"source": "patent US20120184517A1", "about": "“TREATMENT OF DISEASES WITH ALTERED SMOOTH MUSCLE CONTRACTILITY” (priority 2009, published 2012)", "key": {"[1]": {"test_system": "OVA-sensitized mice", "experiment": "OVA induced acute asthma model, repeated i.p. rottlerin", "description": "In this example, the acute asthma model in ovalbumin (OVA) treated mice was used (Jia, Y., R. Foronjy, and J. D'Armiento, Altered airway inflammatory response to cigarette smoke in ovalbumin-sensitized mice. Am J. Resp and Critical Care Medicine (2006) p. Suppl:A339.). […] Mice received an intraperitoneal injection (i.p) of 100 μg ovalbumin adsorbed to 2 mg aluminum (200 μl final volume) on day 0 and again on day 7. Control mice were injected with endotoxin free PBS. On alternative days 14-22, mice received a 20 minute aerosol challenge of either endotoxin-free PBS (controls) or 2% (w/v) OVA in endotoxin-PBS, using a lumiscope 6610 ultrasonic nebulizer (Lumiscope, East Rutherford, N.J.).\nTwo days after the last aerosol challenge, AHR was measured by invasive restrained whole body plethysmography (rWBP) (BUXCO Electronics Inc., Troy, N.Y.) in response to inhaled methacholine (Sigma, St. Louis, Mo.). For dynamic lung resistance, measurements were performed using the PLY3011 chamber (BUXCO). Mice were anesthetized with a cocktail of 25 mg per kg body weight ketamine hydrochloride (Bioniche Pharma, Lake Forest, Ill.) and 2.5 mg per kg body weight xylazine (Llyod Laboratories, Inc., Barangay Tikay, Malolos Bulacan, Philippines), tracheotomized, and immediately intubated with an 18-gauge catheter, followed by mechanical ventilation (Columbus Instruments International, Columbus, Ohio). Respiratory frequency was set at 150 breaths/minute with a tidal volume of 0.2 ml. Increasing concentrations of methacholine (0-50 mg/ml) were administered at the rate of 20 puffs per 10 seconds, with each puff of aerosol delivery lasting 10 ms, via a nebulizer aerosol system with a 4-6 μm aerosol particle size generated by a nebulizer head (Aeroneb®, Aerogen Ltd., Dangan, Galway, Ireland). The nebulizer is attached to a small aerosol block, which is placed in the inspiratory flow line. In this way the aerosol is injected directly into the airway. Baseline resistance was restored before administration of the subsequent doses of methacholine. The flow and pressure signals were measured and processed together to determine resistance and compliance using a software analyzer provided in BioSystem XA software (BUXCO Electronics Inc., Troy, N.Y.).\nAfter measurement of airway responsiveness in vivo, mice were sacrificed and their serum collected and stored at −80° C. until analysis. Serum levels of OVA-specific IgE were measured by sandwich ELISA as described previously (Kanamaru, F., et al. “Costimulation via Glucocorticoid-Induced TNF Receptor in Both Conventional and CD25^+ Regulatory CD4^+ T Cells.” J Immunol., Vol. 172, pages 7306-7314 (2004)).\nBronchoalveolar lavage (BAL) was performed by injection of 1 ml saline (37° C.) through a tracheal cannula into the lung. Cells in the BAL were centrifuged and resuspended in cold PBS. For differential BAL cell counts, cytospin preparations were made and per cytospin, 200 cells were counted and differentiated by standard morphology and staining characteristics.\nIL-4, IL-5 and IL-13 ELISAs were performed according to the manufacturer's instructions (R & D systems, Minneapolis, Minn.). The detection limits of the ELISAs were 60 pg/ml for IL-4, 32 pg/ml for IL-5, 15 pg/ml IL-13.\nIn this system mice are anesthetized and ventilated and through a cannula in the trachea, tracheal pressure and flow are continuously monitored and traditional pulmonary mechanics can be measured. This system is preferable over the method of oscillatory mechanics due to the consistency of measurements and the ability to directly measure pressure and flow. Changes in pressure, flow, and volume were recorded, and RL was calculated from peak values after each challenge (FIG. 14A).\nAfter determining the airway hyperresponsiveness, lungs were lavaged with PBS and total cell count with differential was determined on the bronchoalveolar cells (BAL)."}, "[2]": {"target": "T1, BKCa channel (mSlo) (Mus musculus, UniProt Q08460)", "T1 construct": "expressed in transfected cells", "T1 sequence (Q08460 whole entry)": "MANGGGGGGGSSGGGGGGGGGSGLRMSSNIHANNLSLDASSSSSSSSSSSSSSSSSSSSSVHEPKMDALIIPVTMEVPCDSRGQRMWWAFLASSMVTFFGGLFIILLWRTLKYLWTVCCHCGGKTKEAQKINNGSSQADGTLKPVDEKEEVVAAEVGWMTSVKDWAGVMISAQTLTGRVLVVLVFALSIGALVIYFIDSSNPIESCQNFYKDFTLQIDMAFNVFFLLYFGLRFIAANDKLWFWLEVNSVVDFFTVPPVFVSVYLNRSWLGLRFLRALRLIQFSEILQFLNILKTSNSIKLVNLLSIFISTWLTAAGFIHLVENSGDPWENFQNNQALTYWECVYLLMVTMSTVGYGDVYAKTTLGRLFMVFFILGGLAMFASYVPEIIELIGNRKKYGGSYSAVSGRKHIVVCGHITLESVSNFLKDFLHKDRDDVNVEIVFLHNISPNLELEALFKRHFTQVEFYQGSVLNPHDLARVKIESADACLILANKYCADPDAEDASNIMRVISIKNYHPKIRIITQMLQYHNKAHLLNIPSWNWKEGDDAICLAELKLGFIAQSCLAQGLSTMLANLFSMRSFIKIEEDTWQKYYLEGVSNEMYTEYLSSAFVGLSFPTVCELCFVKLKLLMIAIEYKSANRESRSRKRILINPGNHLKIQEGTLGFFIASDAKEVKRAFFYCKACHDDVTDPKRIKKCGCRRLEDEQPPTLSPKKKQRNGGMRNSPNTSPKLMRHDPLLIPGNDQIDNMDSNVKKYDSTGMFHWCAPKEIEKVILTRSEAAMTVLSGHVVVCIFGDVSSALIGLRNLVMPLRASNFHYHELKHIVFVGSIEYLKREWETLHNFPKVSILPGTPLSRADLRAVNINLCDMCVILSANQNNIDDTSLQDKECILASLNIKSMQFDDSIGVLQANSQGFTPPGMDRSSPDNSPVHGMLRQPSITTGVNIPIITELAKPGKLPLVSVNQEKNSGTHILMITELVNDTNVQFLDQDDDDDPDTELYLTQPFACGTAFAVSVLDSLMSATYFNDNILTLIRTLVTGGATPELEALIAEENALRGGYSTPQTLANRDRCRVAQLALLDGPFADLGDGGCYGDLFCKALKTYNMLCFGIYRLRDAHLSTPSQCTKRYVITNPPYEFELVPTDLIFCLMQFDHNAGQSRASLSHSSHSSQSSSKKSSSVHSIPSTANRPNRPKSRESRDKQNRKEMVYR", "experiment": "Whole cell patch clamp of HEK293 cells stably transfected with mSlo", "format": "cell-based, murine", "description": "FIGS. 4A and 4B show representative current traces from whole cell patches with 5 mM EGTA in patch pipette. […] Voltage steps are shown at the right of each tracing; note the different maximum voltage steps +200 mV (upper) vs. +120 mV (lower). […] FIG. 4C G-V curves were constructed for indicated conditions utilizing tail analysis (Xia, et al., Multiple regulatory sites in large-conductance calcium-activated potassium channels. Nature, 2002. 418(6900):880-4). Solid lines were fitted with Boltzmann function. […] FIGS. 4D and 4E show experiments studying stable mslo HEK293 cells in whole cell configuration with a pipette solution containing 5 mM EGTA (˜0 free Ca^2+).\nCurrent in the diary plot in FIG. 5B represents maximal current in ramp protocol at +70 mV. Holding potential of ramp was −20 mV, with ramp from −30 mV to +180 mV over 500 ms. The G-V curve in FIG. 5C was generated from the tail analysis as described in FIG. 4.\nCurrent was monitored with a ramp protocol; holding potential −60 mV, with ramp from −80 mV to +150 mV over 500 ms. […] Analysis was performed using tail analysis with normalization as previously described (Xia, et al., Multiple regulatory sites in large-conductance calcium-activated potassium channels. Nature, 2002. 418(6900):880-4). […] Identification of the BKCa channel was determined by conductance and inhibition by iberiotoxin and TEA. […] Murine femoral arterial rings were isolated and placed in a wire myograph. […] The figures shown are representative of 4 similar experiments. Error bars are standard error of the mean (SEM). Asterisk (*) indicates p<0.001."}, "[3]": {"target": "PKCδ (Homo sapiens, UniProt Q05655)", "sequence (Q05655 whole entry)": "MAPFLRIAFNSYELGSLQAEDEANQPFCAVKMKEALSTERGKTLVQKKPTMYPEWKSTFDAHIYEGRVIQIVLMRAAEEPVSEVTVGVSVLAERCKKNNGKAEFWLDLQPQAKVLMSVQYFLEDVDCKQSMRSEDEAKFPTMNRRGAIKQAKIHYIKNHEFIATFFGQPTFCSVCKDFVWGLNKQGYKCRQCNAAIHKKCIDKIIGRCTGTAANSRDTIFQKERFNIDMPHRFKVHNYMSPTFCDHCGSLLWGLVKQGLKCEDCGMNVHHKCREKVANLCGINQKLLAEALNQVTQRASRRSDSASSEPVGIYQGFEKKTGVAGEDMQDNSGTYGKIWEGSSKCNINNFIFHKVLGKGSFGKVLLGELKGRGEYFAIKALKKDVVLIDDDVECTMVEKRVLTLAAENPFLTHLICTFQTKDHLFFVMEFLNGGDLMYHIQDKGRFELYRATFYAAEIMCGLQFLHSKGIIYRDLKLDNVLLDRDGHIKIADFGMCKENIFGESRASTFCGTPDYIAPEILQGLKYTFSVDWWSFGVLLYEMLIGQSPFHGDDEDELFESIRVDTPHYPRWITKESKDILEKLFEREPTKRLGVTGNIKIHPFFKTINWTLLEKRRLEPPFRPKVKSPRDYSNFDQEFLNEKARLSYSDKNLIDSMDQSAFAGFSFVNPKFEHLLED", "conditions": "cited from earlier work"}}, "note": "pIC50: −log10 of the molar value. Entries after “also recorded” stand apart in the source; their conditions may differ."}
{"smiles": "CC(=O)c1c(O)c(C)c(O)c(Cc2c(O)c3c(c(C(=O)/C=C/c4ccccc4)c2O)OC(C)(C)C=C3)c1O", "note": "[rottlerin, 5,7-dihydroxy-2,2-dimethyl-6-(2,4,6-trihydroxy-3-methyl-5-acetylbenzyl)-8-cinnamoyl-I,2-chromene]", "values": [{"measurement": "serum OVA specific IgE", "setting": "[1]; OVA+rottlerin versus OVA, 48 hours after last challenge", "result": "similar"}, {"measurement": "Th2 cytokines IL-4, IL-5 and IL-13 in BALF", "setting": "[1]; OVA-sensitized animals", "result": "significantly reduced"}, {"measurement": "number of inflammatory leukocytes in BAL", "setting": "[1]; OVA-sensitized mice", "result": "significant decrease"}, {"measurement": "number of macrophages and eosinophils in BAL", "setting": "[1]; OVA-sensitized mice", "result": "marked reduction"}, {"measurement": "airway constriction", "setting": "[1]; OVA-sensitized mice, 25 mg/ml methacholine challenge, rottlerin 5 mg per kg i.p.", "result": "decrease in airway constriction"}, {"measurement": "airway resistance (RL)", "setting": "[1]; OVA-sensitized mice, MCh 25-50 mg/ml, rottlerin 5 mg per kg i.p.", "result": "decrease in their airway resistance"}, {"measurement": "airway constriction with isoproterenol", "setting": "[1]; OVA-sensitized mice, isoproterenol i.p. 20, 40 and 100 μg after 50 mg/ml methacholine", "result": "significant decrease in airway constriction"}, {"measurement": "cellular infiltrate in the peribronchial and perivascular regions", "setting": "[1]; OVA-sensitized/challenged animals, H & E stain", "result": "significant reduction"}, {"measurement": "airway resistance", "setting": "[1]; PBS-sensitized animals", "result": "no effect"}, {"measurement": "adverse effect, morbidity, mortality", "setting": "[1]; rottlerin 5 mg per kg i.p., repeated", "result": "no significant adverse effect"}, {"measurement": "tail currents (deactivation)", "setting": "[2]; after exposure to rottlerin", "result": "markedly prolonged"}, {"measurement": "concentration at which channel activity was dramatically increased", "setting": "[2]; extracellular, non-Ca2+ dependent, reversible", "result": "< 100", "unit": "nM"}, {"measurement": "current after NS-1619 administration", "setting": "[2]; rottlerin 0.5 μM added after NS-1619, 0 Ca2+", "result": "incrementally increased current"}, {"measurement": "effect of intracellular dialysis on channel activity", "setting": "[2]; up to 20 μM in patch pipette, 25 minutes", "result": "only a relatively small effect; also recorded: minimal effect"}, {"measurement": "pIC50", "setting": "[3]", "result": "5.22 to 5.52"}]}
